# Measured values as given in patent publication US10800792B2, “Inhibitors of Bruton's tyrosine kinase and method of their use” (JANSSEN PHARMACEUTICA NV, priority 2015, dated 2020).
# Target: unphosphorylated-BTK kinase domain (UP-BTK), GST-tagged human BTK (389-659aa) (Homo sapiens (Human), UniProt Q06187)
# Experiment: BTK kinase Lanthascreen binding assay
# Details: Lanthascreen tracer competition, 60 minutes incubation; pIC50 = negative log of the IC50 in molar
# Outline: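 Tracer-displacement binding assay against the non-phosphorylated enzyme, read by Lanthascreen. Reported: pIC50.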
# Chain of unphosphorylated-BTK kinase domain (UP-BTK), GST-tagged human BTK (389-659aa) (Q06187 389-659): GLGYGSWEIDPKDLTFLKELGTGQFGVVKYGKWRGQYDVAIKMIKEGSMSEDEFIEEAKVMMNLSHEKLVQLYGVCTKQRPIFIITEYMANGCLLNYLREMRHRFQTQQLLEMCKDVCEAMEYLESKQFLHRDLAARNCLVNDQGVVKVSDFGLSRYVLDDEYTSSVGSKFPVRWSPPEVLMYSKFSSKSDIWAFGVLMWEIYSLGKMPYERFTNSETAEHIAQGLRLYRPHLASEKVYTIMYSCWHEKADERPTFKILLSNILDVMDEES
row,SMILES,BTK_I_binding pIC50
1,"C=CC(=O)N1CCC[C@@H](NC(=O)c2sc3nccc4c3c2NC(=O)N4c2ccc(Oc3cccc(COc4ccccc4C#N)c3)cc2C)C1 [Example 894, (R)—N-(1-Acryloylpiperidin-3-yl)-5-(4-(3-((2-cyanophenoxy)methyl)phenoxy)-2-methylphenyl)-4-oxo-4,5-dihydro-3H-1-thia-3,5,8-triazaacenaphthylene-2-carboxamide]",7.0
2,"C=CC(=O)N1CCC[C@@H](NC(=O)c2sc3nccc4c3c2NC(=O)N4c2cccc(C3CCOCC3)c2)C1 [Example 708, (R)—N-(1-Acryloylpiperidin-3-yl)-4-oxo-5-(3-(tetrahydro-2H-pyran-4-yl)phenyl)-4,5-dihydro-3H-1-thia-3,5,8-triazaacenaphthylene-2-carboxamide]",6.5
3,"CCC(=O)N1CCC[C@@H](NC(=O)c2sc3nccc4c3c2NC(=O)N4c2ccc(Oc3ccccc3)cc2C)C1 [Example 871, (R)-5-(2-Methyl-4-phenoxyphenyl)-4-oxo-N-(1-propionylpiperidin-3-yl)-4,5-dihydro-3H-1-thia-3,5,8-triazaacenaphthylene-2-carboxamide]",7.3
4,"C=CC(=O)N1CCC[C@@H](NC(=O)c2sc3nccc4c3c2NC(=O)N4c2ncc(Oc3ccccc3)nc2C)C1 [Example 657, (R)—N-(1-Acryloylpiperidin-3-yl)-5-(3-methyl-5-phenoxypyrazin-2-yl)-4-oxo-4,5-dihydro-3H-1-thia-3,5,8-triazaacenaphthylene-2-carboxamide]",7.7

# Same assay, conditions: pIC50 = negative log of the IC50 in molar; 60 minutes incubation, 50 nM Tracer 236
row,SMILES,BTK_I_binding pIC50
1,"Cc1cc(Oc2ccccc2)ccc1N1C(=O)Nc2c(C(=O)N[C@H]3CN(C)CC(F)(F)C3)sc3nccc1c23 [Example 272, (R)—N-(5,5-Difluoro-1-methylpiperidin-3-yl)-5-(2-methyl-4-phenoxyphenyl)-4-oxo-4,5-dihydro-3H-1-thia-3,5,8-triazaacenaphthylene-2-carboxamide]",6.3
2,"COC[C@@H](OC)C(=O)N1CCC[C@@H](NC(=O)c2sc3nccc4c3c2NC(=O)N4c2ccc(Oc3ccccc3)cc2C)C1 [Example 190, N—((R)-1-((R)-2,3-Dimethoxypropanoyl)piperidin-3-yl)-5-(2-methyl-4-phenoxyphenyl)-4-oxo-4,5-dihydro-3H-1-thia-3,5,8-triazaacenaphthylene-2-carboxamide]",7.0
3,"Cc1cc(Oc2ccccc2)ccc1N1C(=O)Nc2c(C(=O)N[C@@H]3CCNC3)sc3nccc1c23 [Example 159, (R)-5-(2-methyl-4-phenoxyphenyl)-4-oxo-N-(pyrrolidin-3-yl)-4,5-dihydro-3H-1-thia-3,5,8-triazaacenaphthylene-2-carboxamide]",7.1
4,"Cc1c(N2C(=O)Nc3c(C(=O)N[C@@H]4CCCN(C(=O)CCO)C4)sc4nccc2c34)ccc(Oc2ccccc2)c1F [Example 128, (R)-5-(3-Fluoro-2-methyl-4-phenoxyphenyl)-N-(1-(3-hydroxypropanoyl)piperidin-3-yl)-4-oxo-4,5-dihydro-3H-1-thia-3,5,8-triazaacenaphthylene-2-carboxamide]",7.2
5,"C=CC(=O)N1CCC[C@@H](NC(=O)c2sc3nccc4c3c2NC(=O)N4c2ccc(Oc3cccc4ccoc34)cc2C)C1 [Example 16, (R)—N-(1-Acryloylpiperidin-3-yl)-5-(4-(benzofuran-7-yloxy)-2-methylphenyl)-4-oxo-4,5-dihydro-3H-1-thia-3,5,8-triazaacenaphthylene-2-carboxamide]",7.3
6,"Cc1cc(Oc2ccccc2)ccc1N1C(=O)Nc2c(C(=O)NC3CCC(C)N(C)C3)sc3nccc1c23 (centres unmarked) [Example 103, N-(1,6-Dimethylpiperidin-3-yl)-5-(2-methyl-4-phenoxyphenyl)-4-oxo-4,5-dihydro-3H-1-thia-3,5,8-triazaacenaphthylene-2-carboxamide]",6.7
7,"Cc1cc(Oc2ccccc2)ccc1N1C(=O)Nc2c(C(=O)NC3CN(C4CC4)C3)sc3nccc1c23 [Example 230, N-(1-Cyclopropylazetidin-3-yl)-5-(2-methyl-4-phenoxyphenyl)-4-oxo-4,5-dihydro-3H-1-thia-3,5,8-triazaacenaphthylene-2-carboxamide]",6.4
8,"C=CC(=O)N1CCC[C@@H](NC(=O)c2sc3nccc4c3c2NC(=O)N4c2ccc(CC)cc2C)C1 [Example 62, (R)—N-(1-Acryloylpiperidin-3-yl)-5-(4-ethyl-2-methylphenyl)-4-oxo-4,5-dihydro-3H-1-thia-3,5,8-triazaacenaphthylene-2-carboxamide]",7.1
9,"Cc1cc(OC2CC2)ccc1N1C(=O)Nc2c(C(=O)N[C@@H]3CCCN(C(=O)/C(C#N)=C/C4CC4)C3)sc3nccc1c23 [Example 185, (R,E)-N-(1-(2-Cyano-3-cyclopropylacryloyl)piperidin-3-yl)-5-(4-cyclopropoxy-2-methylphenyl)-4-oxo-4,5-dihydro-3H-1-thia-3,5,8-triazaacenaphthylene-2-carboxamide]",7.5

# Same assay, conditions: unphosphorylated-BTK kinase domain, 50 nM Tracer 236, 60 minutes; pIC50 = negative log of the IC50 in molar
row,SMILES,BTK_I_binding pIC50
1,"Cc1cc(OC2CC2)ccc1N1C(=O)Nc2c(C(=O)N[C@@H]3CCCN(C)C3)sc3nccc1c23 [Example 322, (R)-5-(4-Cyclopropoxy-2-methylphenyl)-N-(1-methylpiperidin-3-yl)-4-oxo-4,5-dihydro-3H-1-thia-3,5,8-triazaacenaphthylene-2-carboxamide]",5.7
2,"C=CC(=O)N1CCC[C@@H](NC(=O)c2sc3nccc4c3c2NC(=O)N4c2cccc(C(C)C)c2)C1 [Example 529, (R)—N-(1-Acryloylpiperidin-3-yl)-5-(3-isopropylphenyl)-4-oxo-4,5-dihydro-3H-1-thia-3,5,8-triazaacenaphthylene-2-carboxamide]",7.6
3,"Cc1cc(Oc2ccccc2)ccc1N1C(=O)Nc2c(C(=O)NC[C@@H]3CCCCN3)sc3nccc1c23 [Example 310, (S)-5-(2-Methyl-4-phenoxyphenyl)-4-oxo-N-(piperidin-2-ylmethyl)-4,5-dihydro-3H-1-thia-3,5,8-triazaacenaphthylene-2-carboxamide]",6.0
4,"CN1CC[C@@H](NC(=O)c2sc3nccc4c3c2NC(=O)N4Cc2ccc(Oc3ccccc3)cc2)C1 [Example 409, (R)—N-(1-Methylpyrrolidin-3-yl)-4-oxo-5-(4-phenoxybenzyl)-4,5-dihydro-3H-1-thia-3,5,8-triazaacenaphthylene-2-carboxamide]",5.0
5,"COCC(=O)N1CCC[C@@H](NC(=O)c2sc3nccc4c3c2NC(=O)N4c2ccc(Oc3ccccc3)cc2C)C1 (single isomer, unassigned) [Example 495, (R)—N-(1-(2-Methoxyacetyl)piperidin-3-yl)-5-(*S)-(2-methyl-4-phenoxyphenyl)-4-oxo-4,5-dihydro-3H-1-thia-3,5,8-triazaacenaphthylene-2-carboxamide]",7.5
6,"C=CC(=O)N1CCC[C@@H](NC(=O)c2sc3nccc4c3c2NC(=O)N4c2cccc(-c3cccc(F)c3F)c2)C1 [Example 498, (R)—N-(1-Acryloylpiperidin-3-yl)-5-(2′,3′-difluoro-[1,1′-biphenyl]-3-yl)-4-oxo-4,5-dihydro-3H-1-thia-3,5,8-triazaacenaphthylene-2-carboxamide]",7.8
7,"Cc1cc(Oc2ccccc2)ccc1N1C(=O)Nc2c(C(=O)N[C@@H]3CCCN(C(=O)/C(Cl)=C/CN)C3)sc3nccc1c23 [Example 550, (R,Z)—N-(1-(4-Amino-2-chlorobut-2-enoyl)piperidin-3-yl)-5-(2-methyl-4-phenoxyphenyl)-4-oxo-4,5-dihydro-3H-1-thia-3,5,8-triazaacenaphthylene-2-carboxamide]",7.3

# Same assay, conditions: unphosphorylated-BTK kinase domain, 50 nM Tracer 236, 60 minutes; pIC50 = negative log of the IC50 in molar; read-out: BTK_I_binding pIC50 (converted)
row,SMILES,IC50
1,"Cc1cc(Oc2ccccc2)ccc1N1C(=O)Nc2c(C(=O)N[C@@H]3CCCN(C(=O)/C(C#N)=C/C4CC4)C3)sc3nccc1c23 (single isomer, unassigned) [Example 365, (R,E)-N-(1-(2-Cyano-3-cyclopropylacryloyl)piperidin-3-yl)-5-(*R)-(2-methyl-4-phenoxyphenyl)-4-oxo-4,5-dihydro-3H-1-thia-3,5,8-triazaacenaphthylene-2-carboxamide]",50.1 nM

# Same assay, conditions: unphosphorylated-BTK kinase domain, 60 minutes incubation, 50 nM Tracer 236; pIC50 = negative log of the IC50 in molar
row,SMILES,BTK_I_binding pIC50
1,"Cc1cccc(N2C(=O)Nc3c(C(=O)N[C@@H]4CCCNC4)sc4nccc2c34)c1 [Example 950, (R)-4-Oxo-N-(piperidin-3-yl)-5-(m-tolyl)-4,5-dihydro-3H-1-thia-3,5,8-triazaacenaphthylene-2-carboxamide]",5.1
2,"O=C(N[C@@H]1CCCNC1)c1sc2nccc3c2c1NC(=O)N3c1ccc(F)cc1 [Example 953, (R)-5-(4-Fluorophenyl)-4-oxo-N-(piperidin-3-yl)-4,5-dihydro-3H-1-thia-3,5,8-triazaacenaphthylene-2-carboxamide]",5.1
3,"O=C(NC1CCCN(C(=O)CCCl)C1)c1sc2nccc3c2c1NC(=O)N3c1ccc(Oc2ccccc2)cn1 (stereo in doubt) [Example 906, (R)—N-(1-(3-Chloropropanoyl)piperidin-3-yl)-4-oxo-5-(5-phenoxypyridin-2-yl)-4,5-dihydro-3H-1-thia-3,5,8-triazaacenaphthylene-2-carboxamide]",6.7
4,"Cc1ccc(Oc2ccccc2)cc1N1C(=O)Nc2c(C(=O)N[C@H]3CCCN(C(=O)/C(C#N)=C/C4CC4)C3)sc3nccc1c23 [Example 938, (S,E)-N-(1-(2-Cyano-3-cyclopropylacryloyl)piperidin-3-yl)-5-(2-methyl-5-phenoxyphenyl)-4-oxo-4,5-dihydro-3H-1-thia-3,5,8-triazaacenaphthylene-2-carboxamide]",6.0
5,"CN1CCC(NC(=O)c2sc3nccc4c3c2NC(=O)N4c2ccc(Oc3ccccc3)cc2)CC1 [Example 920, N-(1-Methylpiperidin-4-yl)-4-oxo-5-(4-phenoxyphenyl)-4,5-dihydro-3H-1-thia-3,5,8-triazaacenaphthylene-2-carboxamide]",6.4
